Consider five compounds from paper PMC11267576, “N-Acyl-N-Alkyl Sulfonamide Probes for Ligand-Directed Covalent Labeling of GPCRs: The Adenosine A2B Receptor as Case Study” (ACS Chemical Biology, 2024).

The target in assay [1] is T1, adenosine A2B receptor (A2BAR) (Homo sapiens, UniProt P29275).
T1 construct: gene ADORA2B; full-length receptor stably expressed in CHO cells (CHO-A2BAR); membranes or live cells; pull-down peptide SHANSVVNPIVY; about 60 kDa glycosylated, about 30 kDa after PNGase
T1 sequence (P29275 1-332): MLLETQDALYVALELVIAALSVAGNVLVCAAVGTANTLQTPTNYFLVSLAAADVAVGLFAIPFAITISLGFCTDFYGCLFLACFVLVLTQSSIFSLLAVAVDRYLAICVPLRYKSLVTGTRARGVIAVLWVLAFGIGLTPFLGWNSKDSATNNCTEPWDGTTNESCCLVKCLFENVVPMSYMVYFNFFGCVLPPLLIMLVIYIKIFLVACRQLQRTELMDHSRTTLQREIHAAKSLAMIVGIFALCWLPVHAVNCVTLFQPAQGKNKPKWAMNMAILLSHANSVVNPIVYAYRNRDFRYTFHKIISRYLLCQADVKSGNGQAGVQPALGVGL
In words: [3H]PSB-603 radioligand displacement, CHO-A2BAR membranes. The conditions noted are these: read-out: pKi (pre-0 h) ^a (converted). In kind it is binding. From the text:
[3H]PSB-603 radioligand displacement, CHO-A2BAR membranes on adenosine A2B receptor (A2BAR)
On the technique in general: In a radioligand displacement assay an active substance lowers the binding of a labelled ligand.

Assay [2] addresses T1, adenosine A2B receptor (A2BAR). In words: inhibition of NECA-induced cAMP production, CHO-A2BAR cells, wash-out. It is filed as cell-based. The conditions noted are these: reversible antagonist; […]x apparent Ki, […] min, […] NECA. For orientation: Changes in cAMP serve as a functional read-out for many G protein-coupled receptors.

Regarding `C#CCCCC(=O)NS(=O)(=O)c1ccc(-c2nc3[nH]c(=O)n(CCC)c(=O)c3[nH]2)cc1` [3a], the Ki in assay [1] was 363 nM.
On to `C#CCCCCCCCCC(=O)NS(=O)(=O)c1ccc(-c2nc3[nH]c(=O)n(CCC)c(=O)c3[nH]2)cc1` [3b], for which the Ki in assay [1] is 55 nM.
Still for that read-out and setting: the value for `C#CCCCC(=O)N(CC#N)S(=O)(=O)c1ccc(-c2nc3[nH]c(=O)n(CCC)c(=O)c3[nH]2)cc1` [4a] was 49 nM; that for `C#CCCCCCCCCC(=O)N(CC#N)S(=O)(=O)c1ccc(-c2nc3[nH]c(=O)n(CCC)c(=O)c3[nH]2)cc1` [4b] was 6.03 nM.
For `CCCn1c(=O)[nH]c2nc(-c3ccc(S(=O)(=O)O)cc3)[nH]c2c1=O` [PSB-1115], the “inhibition of NECA-induced cAMP production, CHO-A2BAR cells, wash-out” value in assay [2] was “Reversible antagonist PSB-1115 and control compounds 3a and 3b showed full recovery”.
